In US6984634B2, “Bile-acid conjugates for providing sustained systemic concentrations of drugs” (XenoPort, Inc., priority 2000, dated 2006):
Where two headings read alike, the source gives them in different places.

Experiments:
rPEPT2 [1] = target: T1, rPEPT2 (Rattus norvegicus, UniProt Q63424); experiment: Transport-induced currents in Xenopus oocytes expressing rPEPT2; assay type: cell-based; settings: relative to Gly-Sar, test compound 1 mM
T1 construct: expressed in transfected cells; host or cells: Xenopus oocytes
T1 sequence (Q63424 1-729): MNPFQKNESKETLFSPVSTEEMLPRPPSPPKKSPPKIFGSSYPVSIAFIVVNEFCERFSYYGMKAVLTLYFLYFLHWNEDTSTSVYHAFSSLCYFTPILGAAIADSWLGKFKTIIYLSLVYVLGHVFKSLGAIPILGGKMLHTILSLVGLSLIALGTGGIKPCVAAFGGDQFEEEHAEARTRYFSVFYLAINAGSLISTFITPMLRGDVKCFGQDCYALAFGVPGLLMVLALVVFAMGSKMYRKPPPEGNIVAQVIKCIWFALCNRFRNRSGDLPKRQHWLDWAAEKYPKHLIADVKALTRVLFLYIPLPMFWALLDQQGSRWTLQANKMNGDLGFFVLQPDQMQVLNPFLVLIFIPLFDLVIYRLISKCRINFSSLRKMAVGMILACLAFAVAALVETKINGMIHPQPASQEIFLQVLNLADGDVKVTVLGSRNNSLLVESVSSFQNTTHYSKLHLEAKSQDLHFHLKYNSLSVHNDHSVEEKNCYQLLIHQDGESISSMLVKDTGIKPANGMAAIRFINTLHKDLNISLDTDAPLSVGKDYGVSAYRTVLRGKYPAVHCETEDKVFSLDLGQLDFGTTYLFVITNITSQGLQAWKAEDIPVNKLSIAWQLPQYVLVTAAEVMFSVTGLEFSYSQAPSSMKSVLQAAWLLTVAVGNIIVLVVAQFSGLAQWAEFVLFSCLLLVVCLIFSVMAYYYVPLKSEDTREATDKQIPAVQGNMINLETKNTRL
Protocol: (§1) Rat and human PEPT1 and PEPT2 expressing CHO cell lines were prepared as described in PCT Application WO01/20331. Gabapentin-containing dipeptides were evaluated for interaction with the peptide transporters using a radiolabeled substrate uptake assay in a competitive inhibition format, as described in PCT Application WO01/20331. Transport-induced currents were also measured in Xenopus oocytes transfected with rat and human PEPT1 and PEPT2.

rPEPT2 [2] = target: T1, rPEPT2; experiment: Inhibition of radiolabeled Gly-Sar uptake in rPEPT2-expressing CHO cells; assay type: cell-based
Protocol: as §1

rPEPT1 [3] = target: T2, rPEPT1 (Rattus norvegicus, UniProt P51574); experiment: Transport-induced currents in Xenopus oocytes expressing rPEPT1; assay type: cell-based; settings: relative to Gly-Sar, test compound 1 mM
T2 construct: expressed in transfected cells; host or cells: CHO cells
T2 sequence (P51574 1-710): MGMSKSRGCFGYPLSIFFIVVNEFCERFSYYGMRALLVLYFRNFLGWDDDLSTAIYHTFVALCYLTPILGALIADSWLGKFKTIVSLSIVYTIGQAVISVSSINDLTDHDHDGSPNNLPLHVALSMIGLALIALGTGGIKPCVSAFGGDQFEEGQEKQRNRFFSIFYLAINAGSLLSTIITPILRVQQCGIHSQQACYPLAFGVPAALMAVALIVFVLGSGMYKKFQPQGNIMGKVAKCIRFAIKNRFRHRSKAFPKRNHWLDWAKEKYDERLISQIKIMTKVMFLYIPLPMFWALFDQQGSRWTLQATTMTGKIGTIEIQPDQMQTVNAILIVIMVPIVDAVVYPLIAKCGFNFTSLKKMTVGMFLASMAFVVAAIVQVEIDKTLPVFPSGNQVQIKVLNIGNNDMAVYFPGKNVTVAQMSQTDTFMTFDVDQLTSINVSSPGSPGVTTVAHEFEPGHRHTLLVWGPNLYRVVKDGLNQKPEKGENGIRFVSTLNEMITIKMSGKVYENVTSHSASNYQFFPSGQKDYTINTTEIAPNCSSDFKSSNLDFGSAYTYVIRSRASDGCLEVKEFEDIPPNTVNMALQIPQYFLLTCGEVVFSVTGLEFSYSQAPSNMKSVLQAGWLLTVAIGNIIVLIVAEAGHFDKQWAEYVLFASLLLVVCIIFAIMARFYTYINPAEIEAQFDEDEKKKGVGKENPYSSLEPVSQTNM
Protocol: as §1

rPEPT1 [4] = target: T2, rPEPT1; experiment: Inhibition of radiolabeled Gly-Sar uptake in rPEPT1-expressing CHO cells; assay type: cell-based
Protocol: as §1

IBAT transporter [5] = target: T3, IBAT transporter (Homo sapiens, UniProt Q12908); experiment: Inhibition of radiolabeled taurocholate uptake in IBAT-expressing CHO cells; assay type: cell-based; settings: radiolabeled competition assay in IBAT-expressing CHO cells, taurocholate 5 μM
T3 sequence (Q12908 1-348): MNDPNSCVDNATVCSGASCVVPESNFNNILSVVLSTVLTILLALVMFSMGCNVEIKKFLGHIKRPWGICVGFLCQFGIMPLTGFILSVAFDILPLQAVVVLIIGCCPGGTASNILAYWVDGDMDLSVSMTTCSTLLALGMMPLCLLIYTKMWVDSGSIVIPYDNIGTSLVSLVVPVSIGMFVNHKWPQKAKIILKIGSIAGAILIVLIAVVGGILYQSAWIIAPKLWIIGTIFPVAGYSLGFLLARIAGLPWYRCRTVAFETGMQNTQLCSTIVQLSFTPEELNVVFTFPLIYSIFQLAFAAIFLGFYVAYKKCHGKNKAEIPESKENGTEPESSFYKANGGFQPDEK
Protocol: (§2) (a) Inhibition of Radiolabeled Taurocholate Uptake
(§3) CHO cells transfected with the IBAT or LBAT transporter were seeded into 96-well microtiter plates at 100,000 cells/well in 100 μL DMEM containing 10% serum, glutamine and Penstrep. After overnight incubation the media was removed and test compound (25 μL) added at 2× the final desired concentration. Tritiated taurocholate (50,000 CPM/well) was diluted with cold substrate to a final concentration of 5 μM and 25 μL/well of this mixture was added to the plate. After incubating for 1 h at room temperature the solution was removed and the plate washed 4× with PBS at 4° C. 200 μL/well of scintillant is added and the plate then read in a Wallac microbeta counter. The inhibition data is processed by standard methods to calculate an inhibition constant K1 for the test compound.

LBAT transporter = target: T4, LBAT transporter (Homo sapiens, UniProt Q14973); experiment: Inhibition of radiolabeled taurocholate uptake in LBAT-expressing CHO cells; assay type: cell-based; settings: radiolabeled competition assay in LBAT-expressing CHO cells, taurocholate 5 μM
T4 sequence (Q14973 1-349): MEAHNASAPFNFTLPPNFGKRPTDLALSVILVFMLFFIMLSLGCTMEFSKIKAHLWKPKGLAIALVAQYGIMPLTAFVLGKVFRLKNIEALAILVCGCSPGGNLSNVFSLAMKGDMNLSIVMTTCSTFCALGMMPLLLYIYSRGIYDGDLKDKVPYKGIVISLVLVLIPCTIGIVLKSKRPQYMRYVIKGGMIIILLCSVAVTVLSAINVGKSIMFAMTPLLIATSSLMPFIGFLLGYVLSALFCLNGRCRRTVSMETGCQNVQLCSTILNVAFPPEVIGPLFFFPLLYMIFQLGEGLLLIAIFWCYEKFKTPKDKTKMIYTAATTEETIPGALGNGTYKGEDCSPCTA
Protocol: as §2, §3

IBAT transporter [6] = target: T3, IBAT transporter; experiment: Electrogenic transport in Xenopus oocytes expressing IBAT; assay type: cell-based; settings: for % Max. (GDC): relative to glycodeoxycholate
Text: (b) Analysis of Electrogenic Transport in Xenopus Oocytes
RNA preparation: Human IBAT Transporter cDNAs were subcloned into a modified pGEM plasmid that contains 5′ and 3′ untranslated sequences from the Xenopus β-actin gene. These sequences increase RNA stability and protein expression. Plasmid cDNA was linearized and used as template for in vitro transcription (Epicentre Technologies transcription kit, 4:1 methylated:non-methylated GTP).
Xenopus oocyte isolation. Xenopus laevis frogs were anesthetized by immersion in Tricaine ([…] in deionized water) for 15 min. Oocytes were removed and digested in frog ringer solution (90 mM NaCl, 2 mM KCl, 1 mM MgCl2, 10 mM NaHEPES, pH 7.45, no CaCl2) with 1 mg/mL collagenase (Worthington Type 3) for 80-100 min with shaking. The oocytes were washed 6 times, and the buffer changed to frog ringer solution containing CaCl2 (1.8 mM). Remaining follicle cells were removed if necessary. Cells were incubated at 16° C., and each oocyte injected with […] RNA in […] solution.
Electrophysiology measurements. Transport currents were measured 2-14 days after injection, using a standard two-electrode electrophysiology set-up (Geneclamp 500 amplifier, Digidata 1320/PCLAMP software and ADInstruments hardware and software were used for signal acquisition). Electrodes ([…]) were microfabricated using a Sutter Instrument puller and filled with 3M KCl. The bath was directly grounded (transporter currents were less than 0.3 μA). Bath flow was controlled by an automated perfusion system (ALA Scientific Instruments, solenoid valves).
For transporter pharmacology, oocytes were clamped at −60 to −90 mV, and continuous current measurements acquired using PowerLab Software and an ADInstruments digitizer. Current signals were lowpass filtered at 20 Hz and acquired at 4-8 Hz. All bath and drug-containing solutions were frog ringers solution containing CaCl2. Drugs were applied for 10-30 seconds until the induced current reached a new steady-state level, followed by a control solution until baseline currents returned to levels that preceded drug application. The difference current (baseline subtracted from peak current during drug application) reflected the net movement of charge resulting from electrogenic transport and was directly proportional to tranport rate. Recordings were made from a single oocyte for up to 60 min, enabling 30-40 separate compounds to be tested per oocyte. […] To compare results between oocytes expressing different levels of transport activity, a saturating concentration of glycodeoxycholate (300 μM) was used as a common reference to normalize results from test compounds. Using this normalization procedure Vmax (i.e. maximal induced current) for different compounds tested on different oocytes could be compared.

[7] = Pharmacokinetics in rats, Gabapentin in plasma after oral administration; settings: male, Sprague-Dawley, rat, 25 mg/kg
Protocol: The pharmacokinetics of the prodrug Cholyl-Phe-Gabapentin (9g) were examined in rats. Three groups of four male Sprague-Dawley rats (approx 200 g) with jugular cannulae each received one of the following treatments: A) a single bolus intravenous injection of Gabapentin (25 mg/kg, as a solution in water); B) a single oral dose of Gabapentin (25 mg/kg, as a solution in water) administered by oral gavage; C) a single oral dose of (9g) (103.5 mg/kg, as a solution in water) administered by oral gavage. Animals were fasted overnight prior to dosing and until 4 hours post-dosing. Serial blood samples were obtained over 24 hours following dosing and blood was processed for plasma by centrifugation. Plasma samples were stored at −80° C. until analyzed.
Concentrations of (9g) or (2) in plasma samples were determined by LC/MS/MS as described above. Plasma (50 μL) was precipitated by addition of […] of methanol and supernatent was injected directly onto the LC/MS/MS system.

Row | Compound | % Max. (Gly-Sar) (rPEPT1 [3]) [%] | IC50 (IBAT transporter [5]) [µM] | IC50 (LBAT transporter) [µM] | EC50 (IBAT transporter [6]) [µM] | also measured
1 | NC(Cc1ccc(O)cc1)C(=O)NCC1(CC(=O)O)CCCCC1 (centres unmarked) [Tyr-Gabapentin] | 22 | – | – | – | % Max. (Gly-Sar) (rPEPT2 [1]): 73%; IC50 (rPEPT2 [2]): 4 µM; IC50 (rPEPT1 [4]): 130 µM
2 | CC(CCC(=O)NC(Cc1ccc(O)cc1)C(=O)NCC1(CC(=O)O)CCCCC1)C1CCC2C3C(O)CC4CC(O)CCC4(C)C3CC(O)C12C (centres unmarked) [Cholyl-Tyr-Gabapentin (9h), Cholyl-Tyr-Gabapentin] | – | 52 | 15 | 160 | % Max. (GDC) (IBAT transporter [6]): 13%
3 | NCC(=O)NCC1(CC(=O)O)CCCCC1 [Gly-Gabapentin] | 76 | – | – | – | IC50 (rPEPT1 [4]; radiolabeled competition assay in rPEPT1-expressing CHO cells, read-out: IC50): 320 µM
4 | NCC1(CC(=O)O)CCCCC1 [Gabapentin, gabapentin] | – | – | – | – | bioavailability ([7]; oral): 87 ± 18%; Tmax ([7]; po): 1.3 ± 0.5 h; half-life ([7]; po): 180 ± 78 min
5 | NC(Cc1ccccc1)C(=O)NCC1(CC(=O)O)CCCCC1 (centres unmarked) [Phe-Gabapentin] | 52 | – | – | – | % Max. (Gly-Sar) (rPEPT2 [1]): 77%; IC50 (rPEPT1 [4]): 56 µM
6 | CC(CCC(=O)NC(Cc1ccccc1)C(=O)NCC1(CC(=O)O)CCCCC1)C1CCC2C3C(O)CC4CC(O)CCC4(C)C3CCC12C (centres unmarked) [UDC-Phe-Gabapentin (9p), Ursodeoxycholyl-Phe-Gabapentin] | – | 27 | 0.7 | 18 | % Max. (GDC) (IBAT transporter [6]): 27%
7 | C[C@H](CCC(=O)NCC(=O)NCC1(CC(=O)O)CCCCC1)[C@H]1CC[C@H]2[C@@H]3[C@H](O)C[C@@H]4C[C@H](O)CC[C@]4(C)[C@H]3C[C@H](O)[C@]12C [Cholyl-Gly-Gabapentin (9a), Cholyl-Gly-Gabapentin] | – | 66 | 64 | 22 | –
